Legend:
[1] = system: various human cancer cell lines; details: oral administration alone; lung cancer, large bowel cancer, uterus cancer and the like; cited from earlier work
hepatocellular carcinoma = assay: Comparative clinical study of TSU-68 therapy in hepatocellular carcinoma patients treated with TACE; format: in vivo; details: for Median of progression-free survival: 200 mg orally twice daily, started within 2 weeks after TACE
Method: A comparative clinical study was conducted for the TSU-68 administration group and the TSU-68 non-administration group consisting of cases that were impossible to treat with hepatectomy and PAT and had been treated with TACE and excluding cases evaluated as Child-Pugh grade C in terms of hepatic functional reserve. The antitumor agent used for TACE was epirubicin.
The subject cases were randomly assigned to the TSU-68 administration group and the TSU-68 non-administration group. TSU-68 administration was initiated for cases assigned to the TSU-68 administration group within 2 weeks after TACE. TSU-68 was administered orally at a dose of 200 mg per administration twice daily after breakfast and dinner on consecutive days. No further treatment was given to the TSU-68 non-administration group after TACE and thus only follow-up observation was carried out.
Progression-free survival was defined as survival within the period from the day of TACE designated as the initial date of reckoning to any of dates on which the following events was observed, whichever came first.
1. Date on which the presence of progressive disease (hereinafter referred to as “PD”) was confirmed as a result of assessment of best overall response (date of testing). 2. Date on which a test subject died for any reason (date of death). 3. Date on which a test subject was assessed to have experienced clinically obvious deterioration of the disease or to be in need of post-TACE treatment even without confirmation of PD upon assessment of best overall response (date of assessment).
Best overall response was evaluated by measuring tumor diameters by CT and assaying tumor markers (AFP, PIVKA-II, and AFP-L3 fractions) according to New Guideline to Evaluate the Response to Treatment in Solid Tumor (hereinafter referred to as “RECIST”) (J Natl Cancer Inst 92: 205, 2000).

[2] = unresectable hepatocellular carcinoma patients; cited from earlier work
[3] = TACE-treated hepatocellular carcinoma patients of Child-Pugh grade A

| SMILES | Antitumor effect (tumor growth) [1] | Progression-free survival compared with the TSU-68 non-administration group (hepatocellular carcinoma; TACE-treated hepatocellular carcinoma patients) | Progression-free survival compared with the TSU-68 non-administration group (hepatocellular carcinoma; [3]) | Median of progression-free survival (hepatocellular carcinoma; [3]) | Severity of each adverse reaction (hepatocellular carcinoma; major adverse reactions: abdominal pain, ascites, edema, general fatigue, fever, feeling of sickness) | Median of progression-free survival (hepatocellular carcinoma; post-TACE hepatocellular carcinoma patients) | Increase of AST level in patients [2] | Increase of bilirubin level (corresponding to score 3 or more) in patients [2] |
| --- | --- | --- | --- | --- | --- | --- | --- | --- |
| Cc1[nH]c(/C=C2\C(=O)Nc3ccccc32)c(C)c1CCC(=O)O [TSU-68, (Z)-5-[(1,2-dihydro-2-oxo-3H-indol-3-ylidene)methyl]2,4-dimethyl-1H-pyrrol-3-propanoic acid] | effective for inhibiting tumor growth | significantly extended | significantly extended | 5.8 month | grade 1 or 2 | 5.2 month | – | – |
| CNC(=O)c1cc(Oc2ccc(NC(=O)Nc3ccc(Cl)c(C(F)(F)F)c3)cc2)ccn1 [sorafenib] | – | – | – | – | – | – | 45% | 32% |
